# Source: ChEMBL document CHEMBL3045522, “Responses of dry beans (Phaseolus vulgaris L.) to sulfentrazone” (Crop Prot, 2007)
# Legend:
# Format in all cases: organism-based
# Phaseolus vulgaris [1] = experiment: Phytotoxicity against Phaseolus vulgaris (dry bean) assessed as visual crop injury at 420 g a.i./ha applied pre-emergence measured at 28 days post-emergence relative to control; details: in vivo, other, 672 h
# Phaseolus vulgaris [2] = experiment: Phytotoxicity against Phaseolus vulgaris (dry bean) assessed as visual crop injury at 420 g a.i./ha applied pre-emergence measured at 14 days post-emergence relative to control; details: in vivo, other, 336 h
# Phaseolus vulgaris [3] = experiment: Phytotoxicity against Phaseolus vulgaris (Pinto dry beans) assessed as plant height at 840 g a.i./ha applied pre-emergence measured at 28 days post-emergence (reference value: 32 +/- 1 cm); details: in vivo, other, 672 h
# Phaseolus vulgaris [4] = experiment: Phytotoxicity against Phaseolus vulgaris (Otebo dry beans) assessed as plant height at 840 g a.i./ha applied pre-emergence measured at 28 days post-emergence (reference value: 31 +/- 2 cm); details: in vivo, other, 672 h
# Phaseolus vulgaris [5] = experiment: Phytotoxicity against Phaseolus vulgaris (Kidney dry beans) assessed as plant height at 840 g a.i./ha applied pre-emergence measured at 28 days post-emergence (reference value: 33 +/- 1 cm); details: in vivo, other, 672 h
# Phaseolus vulgaris [6] = experiment: Phytotoxicity against Phaseolus vulgaris (Brown dry beans) assessed as plant height at 840 g a.i./ha applied pre-emergence measured at 28 days post-emergence (reference value: 33 +/- 1 cm); details: in vivo, other, 672 h
# Phaseolus vulgaris [7] = experiment: Phytotoxicity against Phaseolus vulgaris (Black dry beans) assessed as plant height at 840 g a.i./ha applied pre-emergence measured at 28 days post-emergence (reference value: 28 +/- 1 cm); details: in vivo, other, 672 h
# Phaseolus vulgaris [8] = experiment: Phytotoxicity against Phaseolus vulgaris (White dry beans) assessed as plant height at 420 g a.i./ha applied pre-emergence measured at 28 days post-emergence (reference value: 31 +/- 2 cm); details: in vivo, other, 672 h
# Phaseolus vulgaris [9] = experiment: Phytotoxicity against Phaseolus vulgaris (brown dry beans) assessed as visual crop injury at 420 to 840 g a.i./ha applied pre-emergence measured at 28 days post-emergence relative to control; details: in vivo, other, 672 h
# Phaseolus vulgaris [10] = experiment: Phytotoxicity against Phaseolus vulgaris (Black dry beans) assessed as visual crop injury at 420 to 840 g a.i./ha applied pre-emergence measured at 28 days post-emergence relative to control; details: in vivo, other, 672 h
# Phaseolus vulgaris [11] = experiment: Phytotoxicity against Phaseolus vulgaris (Kidney dry beans) assessed as plant height at 420 g a.i./ha applied pre-emergence measured at 28 days post-emergence (reference value: 33 +/- 1 cm); details: in vivo, other, 672 h
# Phaseolus vulgaris [12] = experiment: Phytotoxicity against Phaseolus vulgaris (Otebo dry beans) assessed as plant height at 420 g a.i./ha applied pre-emergence measured at 28 days post-emergence (reference value: 31 +/- 2 cm); details: in vivo, other, 672 h
# Phaseolus vulgaris [13] = experiment: Phytotoxicity against Phaseolus vulgaris (Yellow eye dry beans) assessed as visual crop injury at 420 to 840 g a.i./ha applied pre-emergence measured at 28 days post-emergence relative to control; details: in vivo, other, 672 h
# Phaseolus vulgaris [14] = experiment: Phytotoxicity against Phaseolus vulgaris (White dry beans) assessed as visual crop injury at 420 to 840 g a.i./ha applied pre-emergence measured at 28 days post-emergence relative to control; details: in vivo, other, 672 h
# Phaseolus vulgaris [15] = experiment: Phytotoxicity against Phaseolus vulgaris (Yellow eye dry beans) assessed as yield at 840 g a.i./ha applied pre-emergence (reference value: 2 +/- 0.1 tons/ha); details: in vivo, other
# Phaseolus vulgaris [16] = experiment: Phytotoxicity against Phaseolus vulgaris (White dry beans) assessed as reduction in yield at 840 g a.i./ha applied pre-emergence relative to control; set-up: scale not given: the % may be the effect or the level left; details: in vivo, other
# Phaseolus vulgaris [17] = experiment: Phytotoxicity against Phaseolus vulgaris (Brown dry beans) assessed as yield at 840 g a.i./ha applied pre-emergence (reference value: 2.3 +/- 0.1 tons/ha); details: in vivo, other
# Phaseolus vulgaris [18] = experiment: Phytotoxicity against Phaseolus vulgaris (White dry beans) assessed as yield at 420 g a.i./ha applied pre-emergence (reference value: 2.9 +/- 0.1 tons/ha); details: in vivo, other
# Phaseolus vulgaris [19] = experiment: Phytotoxicity against Phaseolus vulgaris (Otebo dry beans) assessed as yield at 420 g a.i./ha applied pre-emergence (reference value: 3.1 +/- 0.1 tons/ha); details: in vivo, other
# Phaseolus vulgaris [20] = experiment: Phytotoxicity against Phaseolus vulgaris (Pinto dry beans) assessed as yield at 420 g a.i./ha applied pre-emergence (reference value: 3.1 +/- 0.1 tons/ha); details: in vivo, other
# Phaseolus vulgaris [21] = experiment: Phytotoxicity against Phaseolus vulgaris (Kidney dry beans) assessed as yield at 420 g a.i./ha applied pre-emergence (reference value: 1.9 +/- 0.1 tons/ha); details: in vivo, other
# Phaseolus vulgaris [22] = experiment: Phytotoxicity against Phaseolus vulgaris (Cranberry dry beans) assessed as yield at 420 g a.i./ha applied pre-emergence (reference value: 2.7 +/- 0.1 tons/ha); details: in vivo, other
# Phaseolus vulgaris [23] = experiment: Phytotoxicity against Phaseolus vulgaris (Black dry beans) assessed as yield at 420 g a.i./ha applied pre-emergence (reference value: 3.4 +/- 0.2 tons/ha); details: in vivo, other
# Phaseolus vulgaris [24] = experiment: Phytotoxicity against Phaseolus vulgaris (Yellow eye dry beans) assessed as reduction in shoot dry weight at 840 g a.i./ha applied pre-emergence measured at 42 days post-emergence relative to control; set-up: scale not given: the % may be the effect or the level left; details: in vivo, other, 1008 h
# Phaseolus vulgaris [25] = experiment: Phytotoxicity against Phaseolus vulgaris (White dry beans) assessed as reduction in shoot dry weight at 840 g a.i./ha applied pre-emergence measured at 42 days post-emergence relative to control; set-up: scale not given: the % may be the effect or the level left; details: in vivo, other, 1008 h
# Phaseolus vulgaris [26] = experiment: Phytotoxicity against Phaseolus vulgaris (Pinto dry beans) assessed as shoot dry weight at 840 g a.i./ha applied pre-emergence measured at 42 days post-emergence (reference value: 134 +/- 11 g/m); details: in vivo, other, 1008 h
# Phaseolus vulgaris [27] = experiment: Phytotoxicity against Phaseolus vulgaris (Kidney dry beans) assessed as reduction in shoot dry weight at 840 g a.i./ha applied pre-emergence measured at 42 days post-emergence relative to control; set-up: scale not given: the % may be the effect or the level left; details: in vivo, other, 1008 h
# Phaseolus vulgaris [28] = experiment: Phytotoxicity against Phaseolus vulgaris (Yellow eye dry beans) assessed as shoot dry weight at 420 g a.i./ha applied pre-emergence measured at 42 days post-emergence (reference value: 142 +/- 8 g/m); details: in vivo, other, 1008 h
# Phaseolus vulgaris [29] = experiment: Phytotoxicity against Phaseolus vulgaris (White dry beans) assessed as shoot dry weight at 420 g a.i./ha applied pre-emergence measured at 42 days post-emergence (reference value: 135 +/- 11 g/m); details: in vivo, other, 1008 h
# Phaseolus vulgaris [30] = experiment: Phytotoxicity against Phaseolus vulgaris (Pinto dry beans) assessed as shoot dry weight at 420 g a.i./ha applied pre-emergence measured at 42 days post-emergence (reference value: 134 +/- 11 g/m); details: in vivo, other, 1008 h
# Phaseolus vulgaris [31] = experiment: Phytotoxicity against Phaseolus vulgaris (Otebo dry beans) assessed as shoot dry weight at 420 g a.i./ha applied pre-emergence measured at 42 days post-emergence (reference value: 156 +/- 10 g/m); details: in vivo, other, 1008 h
# Phaseolus vulgaris [32] = experiment: Phytotoxicity against Phaseolus vulgaris (Cranberry dry beans) assessed as shoot dry weight at 420 g a.i./ha applied pre-emergence measured at 42 days post-emergence (reference value: 138 +/- 8 g/m); details: in vivo, other, 1008 h
# Phaseolus vulgaris [33] = experiment: Phytotoxicity against Phaseolus vulgaris (Brown dry beans) assessed as shoot dry weight at 420 g a.i./ha applied pre-emergence measured at 42 days post-emergence (reference value: 123 +/- 7 g/m); details: in vivo, other, 1008 h
# Phaseolus vulgaris [34] = experiment: Phytotoxicity against Phaseolus vulgaris (Black dry beans) assessed as shoot dry weight at 420 g a.i./ha applied pre-emergence measured at 42 days post-emergence (reference value: 136 +/- 9 g/m); details: in vivo, other, 1008 h
compound,measurement,setting,value
Cc1nn(-c2cc(NS(C)(=O)=O)c(Cl)cc2Cl)c(=O)n1C(F)F [SULFENTRAZONE],Activity,Phaseolus vulgaris [1],7%
same,Activity,Phaseolus vulgaris [2],12%
same,Activity,Phaseolus vulgaris [3],26 cm
same,Activity,Phaseolus vulgaris [4],23 cm
same,Activity,Phaseolus vulgaris [5],25 cm
same,Activity,Phaseolus vulgaris [6],28 cm
same,Activity,Phaseolus vulgaris [7],21 cm
same,Activity,Phaseolus vulgaris [8],27 cm
same,Activity,Phaseolus vulgaris [9],7%
same,Activity,Phaseolus vulgaris [10],16.6%
same,Activity,Phaseolus vulgaris [11],29 cm
same,Activity,Phaseolus vulgaris [12],28 cm
same,Activity,Phaseolus vulgaris [13],13.1%
same,Activity,Phaseolus vulgaris [14],17.9%
same,Crop_yield,Phaseolus vulgaris [15],1.4 tons/ha
same,Activity,Phaseolus vulgaris [16],52%
same,Crop_yield,Phaseolus vulgaris [17],2.1 tons/ha
same,Crop_yield,Phaseolus vulgaris [18],2.4 tons/ha
same,Crop_yield,Phaseolus vulgaris [19],3 tons/ha
same,Crop_yield,Phaseolus vulgaris [20],3.4 tons/ha
same,Crop_yield,Phaseolus vulgaris [21],1.9 tons/ha
same,Crop_yield,Phaseolus vulgaris [22],2.4 tons/ha
same,Crop_yield,Phaseolus vulgaris [23],2.9 tons/ha
same,Activity,Phaseolus vulgaris [24],40%
same,Activity,Phaseolus vulgaris [25],30%
same,Activity,Phaseolus vulgaris [26],128 g/m
same,Activity,Phaseolus vulgaris [27],35%
same,Activity,Phaseolus vulgaris [28],134 g/m
same,Activity,Phaseolus vulgaris [29],130 g/m
same,Activity,Phaseolus vulgaris [30],149 g/m
same,Activity,Phaseolus vulgaris [31],157 g/m
same,Activity,Phaseolus vulgaris [32],138 g/m
same,Activity,Phaseolus vulgaris [33],134 g/m
same,Activity,Phaseolus vulgaris [34],111 g/m
